Data on six compounds can be found in US20250152743A1, “SYNPOPTOSIS CIRCUITS FOR PROGRAMMABLE CELL DEATH CONTROL” (California Institute of Technology, priority 2023, published 2025).

“Also recorded” adds a separate entry of the source.

Common to all, as to format: cell-based, human
Experiment [1] deals with HEK cells. Nature of the experiment: Q-VD-OPh on circuit-induced cell death, flow cytometry. To be noted: Q-VD-OPh 30 μM. How it is done: Then, because naturally occurring cell death can be modulated by small-molecule compounds, the effect of Q-VD-OPh, a caspase inhibitor, on synpoptosis circuits was investigated (FIG. 2C). […] It was also asked whether cells treated with synpoptosis circuits stain positive for TO-PRO-3, a dye that enters apoptotic cells through pannexin channels and pyroptotic cells through permeabilized membranes.
On the day before transfection, HEK cells were seeded at a density of 0.3-0.6 million cells per well on a 12-well plate, 0.1-0.3 million cells per well on a 24-well plate, or 15,000-50,000 cells per well on a 96-well plate. The cells were allowed to attach to the plate overnight, for at least 8 hours. On the day of transfection, we treated the cells with purified DNA plasmids encoding circuit components. In addition to plasmids encoding circuit components, we often included a plasmid encoding a fluorescent co-transfection marker, at roughly 50 ng DNA per well on a 24-well plate. Given the different number of molecular components in each synthetic circuit and their various relative ratios, the total amount of DNA ranged from 50 to 1 μg per well on a 24-well plate, and was scaled by 0.5 or 4 when other 12-well or 96-well plates were used, respectively. […]

In experiment [2] the test system is HEK293FT cells. Nature of the experiment: Co-transfection time course, cell death every 24 h over 4 days. The settings on record: P3/P4-zipper reconstituted TEVP. As for the experimental part:
Moreover, it was evaluated if some of these mutations affect the maximal caspase activation accessible and the time dependency between caspase activation and cell death by co-transfecting (i) input proteases (P3/P4-zipper reconstituted TEVP as a positive control, split TEVP without reconstitution domain as a negative control, or NeoR to evaluate caspase baseline activity; all with IRES-BFP to enable expression tracking) and (ii) output caspase (“ENLYFQS” (SEQ ID NO: 2)/“ENLYFQQ” (SEQ ID NO: 4)/“ENLFFQQ” (SEQ ID NO: 7)+co-transfected GFP for expression tracking) in HEK293FT cells and measuring cell death every 24 h over the course of 4 days.

In experiment [3] the test system is HEK293FT cells. Put plainly: Polytransfection of input proteases and caspase cleavage-site variants, Annexin staining. To be noted: order, decreasing: ENLFFQQ; ENLFFQY; ENLYFQS+TEVP-cleavable DHFR; ENLFFQS~ENLYFQY~ENLYFQQ; ENLYFQS; both TEVP and TVMVP cleavage site. The text has this: The cleavage efficiency of proteases is known to depend on corresponding accessible cleavage sites. Mutations to native protease cleavage sites can slow (i) the recruitment of substrates to the protease active site, (ii) catalytic reaction steps, or (iii) the release of the substrate from the protease. As described herein, this property to modulate cell death executioner activation thresholds. Specifically, we surveyed the following constructs with modified protease cleavage sites across a wide range of possible cell death executioner and input protease expression regimes:
Caspase 3 with ENLYFQS TEVP protease cleavage site (native protease cleavage site is ENLYFQG/S, SEQ ID NOs: 1-2), which serves as a control; Caspase 3 with ENLYFQY (SEQ ID NO: 3) TEVP protease cleavage site; Caspase 3 with ENLYFQQ (SEQ ID NO: 4) TEVP protease cleavage site; Caspase 3 with ENLFFQS (SEQ ID NO: 5) TEVP protease cleavage site; Caspase 3 with ENLFFQY (SEQ ID NO: 6) TEVP protease cleavage site; Caspase 3 with ENLFFQQ (SEQ ID NO: 7) TEVP protease cleavage site; Caspase 3 with both native TEVP and TVMVP cleavage sites separated by linker; Caspase 3 with native TEVP cleavage site fused to C-terminal TEVP-cleavable DHFR degron.
To evaluate how the mutated protease cleavage sites affect Caspase 3 activation, we polytransfected (i) input proteases (P3/P4-zipper reconstituted TEVP as a positive control, split TEVP without reconstitution domain as a negative control, or NeoR to evaluate caspase baseline activity; all with IRES-BFP to enable expression tracking) and (ii) output caspase (caspase+co-transfected GFP for expression tracking) in HEK293FT cells. Annexin staining as described above in Example 1 was used to quantify cell death.

The test system of experiment [4] is HEK cells. Nature of the experiment: Transient DNA transfection of HEK cells, Annexin/Sytox staining, flow cytometry. The settings on record: tev, tvmv and hcv sites. How it is done:
HEK cells were transiently co-transfected with DNA encoding the circuits, often along with Cherry, a fluorescent protein marker, and cells were analyzed by flow cytometry 16 to 24 hours later. To quantify cell death, the cells were strained with Annexin, Sytox, or both. Annexin stains apoptotic cells by binding to phosphatidylserine exposed on the outer leaflet, and pyroptotic cells by binding to phosphatidylserine in the inner leaflet after membrane permeabilization. In contrast, Sytox, a membrane-impermeable dye, primarily stains pyroptotic cells. Therefore, apoptotic cells are typically Annexin-high and Sytox-low, while pyroptotic cells are Annexin-high and Sytox-high (FIG. 7B). For simplicity, in experiments involving only a single death mode, a single relevant dye was often used. To focus on cells influenced by the circuits, the fraction of Annexin- or Sytox-positive cells was calculated after gating on the fluorescent co-transfection marker (FIG. 7C).
On the day before transfection, HEK cells were seeded at a density of 0.3-0.6 million cells per well on a 12-well plate, 0.1-0.3 million cells per well on a 24-well plate, or 15,000-50,000 cells per well on a 96-well plate. The cells were allowed to attach to the plate overnight, for at least 8 hours. On the day of transfection, we treated the cells with purified DNA plasmids encoding circuit components. […]

Take `CC(C)[C@H](NC(=O)c1ccc2ccccc2n1)C(=O)N[C@@H](CC(=O)O)C(=O)COc1c(F)cccc1F` [Q-VD-OPh, Quinoline-Val-Asp-Difluorophenoxymethylketone]: in the experiment on HEK cells [1], the “apoptosis induced by the caspase-3 circuit” value is reported as “suppressed circuit-induced apoptosis; also recorded: markedly attenuated apoptosis” and the “pyroptosis mediated by the GSDMA circuit” value was “did not affect pyroptosis”.
As for “ENLFFQQ: caspase 3 with modified TEVP cleavage site (left off: small tags and cut ends)”, the “maximal caspase activation / maximal fraction of dead cells” value in the experiment with HEK293FT cells [2] is recorded as “reduces the maximum activation to a degree where the complete killing of the cell population is not possible anymore”. The “input/output expression required for caspase activation (activation threshold)” value (from here on “input/output expression required”) in the experiment with HEK293FT cells [3] was “requires the highest input/output expression for activation”.
For “ENLFFQY: caspase 3 with modified TEVP cleavage site (left off: small tags and cut ends)”, the “input/output expression required” value with HEK293FT cells [3] was “in decreasing order”.
Take “ENLYFQQ: caspase 3 with modified TEVP cleavage site (left off: small tags and cut ends)”: in the experiment on HEK293FT cells [2], the “maximal caspase activation / maximal fraction of dead cells” value is on record as “comparable maximal fraction of dead cells”. Also, the “input/output expression required” value with HEK293FT cells [3] is “in decreasing order”.
“ENLYFQY: caspase 3 with modified TEVP cleavage site (left off: small tags and cut ends)”: the “input/output expression required” value with HEK293FT cells [3] was “in decreasing order”.
With “hepatitis C virus protease [HCVP, reference compound]”, the “activation of cognate engineered GSDMs containing the cleavage sites” value with HEK cells [4] is “orthogonally activated their cognate engineered GSDMs”.
